Assay results published in patent US12559474B2, “Triazine derivatives having virus replication inhibitory activity and pharmaceutical composition comprising the same” (priority 2021, dated 2026).
Where two headings read alike, the source gives them in different places.

Columns and labels:
SARS-CoV-2 = assay: microbe, parasite or virus in culture; format: cell-based; conditions: Severe acute respiratory syndrome coronavirus 2, VeroE6/TMPRSS2, 72 h, 50% SARS-CoV-2 infected cell death inhibitory concentration, VeroE6/TMPRSS2 cells, 3 days culture
SARS-CoV-2 3CL protease = SARS-CoV-2 3CL protease (Severe acute respiratory syndrome coronavirus 2, UniProt P0DTD1); assay: biochemical; conditions: 50% SARS-CoV-2 3CL protease inhibitory concentration, read-out: IC50

| Compound | EC50 (SARS-CoV-2; class symbols) | IC50 (SARS-CoV-2 3CL protease; given as class symbols) | EC50 (SARS-CoV-2; CellTiter-Glo 2.0) | IC50 (SARS-CoV-2 3CL protease; RapidFire MS) |
| --- | --- | --- | --- | --- |
| COc1ccc(Nc2nc(=O)n(-c3cccnc3)c(=O)n2Cc2cc(F)c(F)c(F)c2)cc1 [Compound I-0135] | 1000 to 10000 nM | 100 to 1000 nM |  |  |
| COc1ccc(Nc2nc(=O)n(-c3cncc4ccccc34)c(=O)n2Cc2cc(F)c(F)c(F)c2)cc1 [Compound I-0136] | 1000 to 10000 nM | < 100 nM |  |  |
| COc1ccc(Nc2nc(=O)n(-c3cncc4ccccc34)c(=O)n2Cc2cc(F)c(F)c(F)c2)c(Cl)c1 [Compound I-0152] | < 1000 nM | < 100 nM |  |  |
| CCc1cc(OC)ccc1Nc1nc(=O)n(Cc2ccc[nH]c2=O)c(=O)n1Cc1cc(F)c(F)c(F)c1 [Compound I-0165] | 1000 to 10000 nM | < 100 nM |  |  |
| COc1ccc(Nc2nc(=O)n(Cc3ccc[nH]c3=O)c(=O)n2Cc2cc(F)c(F)c(F)c2)c(Br)c1 [Compound I-0166] | < 1000 nM | < 100 nM |  |  |
| O=c1[nH]cccc1Cn1c(=O)nc(N2Cc3ccccc3C2)n(Cc2cc(F)c(F)c(F)c2)c1=O [Compound I-0180] |  |  | 6410 nM | 58 nM |
| COc1ccc(Nc2nc(=O)n(Cc3ccc[nH]c3=O)c(=O)n2Cc2cc(F)c(F)cc2Cl)cc1 [Compound I-0194] | 1000 to 10000 nM | < 100 nM |  |  |
| COc1ccc(Nc2nc(=O)n(Cc3ccc[nH]c3=O)c(=O)n2Cc2ccc(F)c(Br)c2)cc1 [Compound I-0196] | 1000 to 10000 nM | < 100 nM |  |  |
| COc1ccc(Nc2nc(=O)n(Cc3ccc[nH]c3=O)c(=O)n2Cc2cc(Cl)cc(Cl)c2)cc1 [Compound I-0213] | 1000 to 10000 nM | < 100 nM |  |  |
| COc1ccc(Nc2nc(=O)n(Cc3ccc[nH]c3=O)c(=O)n2Cc2cc(Cl)ccc2Cl)cc1 [Compound I-0214] | < 1000 nM | < 100 nM |  |  |
| COc1ccc(Nc2nc(=O)n(Cc3ccc[nH]c3=O)c(=O)n2Cc2cc(Cl)c(F)cc2F)cc1 [Compound I-0226] | 1000 to 10000 nM | < 100 nM |  |  |
| COc1ccc(Nc2nc(=O)n(Cc3ccc[nH]c3=O)c(=O)n2Cc2cc(Cl)c(F)c(Cl)c2)cc1 [Compound I-0227] | 1000 to 10000 nM | < 100 nM |  |  |
| COc1ccc(Nc2nc(=O)n(Cc3ccc[nH]c3=O)c(=O)n2Cc2cc(Cl)ccc2F)cc1 [Compound I-0231] | 1000 to 10000 nM | < 100 nM |  |  |
| Cn1cc2cc(Nc3nc(=O)n(Cc4cc5cccnc5[nH]c4=O)c(=O)n3Cc3cc(F)c(F)c(F)c3)c(Cl)cc2n1 [Compound I-0236] | < 1000 nM | < 100 nM |  |  |
| O=c1[nH]c2ncccc2cc1Cn1c(=O)nc(Nc2cc3cn(CCO)nc3cc2Cl)n(Cc2cc(F)c(F)c(F)c2)c1=O [Compound I-0237] |  |  | 3390 nM | 4.2 nM |
| O=c1[nH]cccc1Cn1c(=O)nc(Nc2cc3c(cc2Cl)OCC3)n(Cc2cc(F)c(F)c(F)c2)c1=O [Compound I-0239] |  |  | 225 nM | 3.9 nM |
| CCOc1ccc(Nc2nc(=O)n(Cc3ccc[nH]c3=O)c(=O)n2Cc2cc(F)c(F)c(F)c2)c(Cl)c1 [Compound I-0242] | < 1000 nM | < 100 nM |  |  |
| COc1cc(Cl)c(Nc2nc(=O)n(Cc3ccc[nH]c3=O)c(=O)n2Cc2cc(F)c(F)c(F)c2)cn1 [Compound I-0245] | 1000 to 10000 nM | < 100 nM |  |  |
| O=c1[nH]cccc1Cn1c(=O)nc(Nc2cc3ccnn3cc2Cl)n(Cc2cc(F)c(F)c(F)c2)c1=O [Compound I-0247] | 1000 to 10000 nM |  | 3540 nM | 25 nM |
| COCCCn1cc2cc(Nc3nc(=O)n(Cc4ccc[nH]c4=O)c(=O)n3Cc3cc(F)c(F)c(F)c3)c(Cl)cc2n1 [Compound I-0248] | 1000 to 10000 nM | < 100 nM |  |  |
| O=c1[nH]cccc1Cn1c(=O)nc(Nc2cc3cn(CCN4CCOCC4)nc3cc2Cl)n(Cc2cc(F)c(F)c(F)c2)c1=O [Compound I-0249] | 1000 to 10000 nM | < 100 nM |  |  |
| O=c1[nH]cc(Cl)cc1Cn1c(=O)nc(Nc2cc3cn(CCN4CCOCC4)nc3cc2Cl)n(Cc2cc(F)c(F)c(F)c2)c1=O [Compound I-0250] | 1000 to 10000 nM | < 100 nM |  |  |
| O=c1[nH]cc(Cl)cc1Cn1c(=O)nc(Nc2cc3cn([C@H]4CCC[C@@H]4O)nc3cc2Cl)n(Cc2cc(F)c(F)c(F)c2)c1=O [Compound I-0251] | 1000 to 10000 nM | < 100 nM |  |  |
| COc1ccc(Nc2nc(=O)n(Cc3ccc[nH]c3=O)c(=O)n2Cc2ccc(F)c(Cl)c2)cc1 [Compound I-0252] | 1000 to 10000 nM | < 100 nM |  |  |
| COc1ccc(Nc2nc(=O)n(Cc3ccc[nH]c3=O)c(=O)n2Cc2ccc(F)c(C#N)c2)cc1 [Compound I-0253] | 1000 to 10000 nM | < 100 nM |  |  |
| COc1ccc(Nc2nc(=O)n(Cc3ccc[nH]c3=O)c(=O)n2Cc2cc(F)c(F)c(Cl)c2)cc1 [Compound I-0254] | 1000 to 10000 nM | < 100 nM |  |  |
| COc1ccc(Nc2nc(=O)n(Cc3ccc[nH]c3=O)c(=O)n2Cc2cc(F)c(F)c(Cl)c2)c(Cl)c1 [Compound I-0255] | < 1000 nM | < 100 nM |  |  |
